US20250154173A1 (Merck Sharp & Dohme LLC, priority 2023, published 2025)

Molecular target: T1, GST-RIPK1 (recombinant GST-RIPK1 kinase domain (residues 1-327)) (Homo sapiens, UniProt Q13546)
T1 construct: recombinant GST-RIPK1 kinase domain (residues 1-327) enzyme produced from baculovirus-transfected Sf21 cells; host or cells: baculovirus-transfected Sf21 insect cells
T1 sequence (Q13546 1-327): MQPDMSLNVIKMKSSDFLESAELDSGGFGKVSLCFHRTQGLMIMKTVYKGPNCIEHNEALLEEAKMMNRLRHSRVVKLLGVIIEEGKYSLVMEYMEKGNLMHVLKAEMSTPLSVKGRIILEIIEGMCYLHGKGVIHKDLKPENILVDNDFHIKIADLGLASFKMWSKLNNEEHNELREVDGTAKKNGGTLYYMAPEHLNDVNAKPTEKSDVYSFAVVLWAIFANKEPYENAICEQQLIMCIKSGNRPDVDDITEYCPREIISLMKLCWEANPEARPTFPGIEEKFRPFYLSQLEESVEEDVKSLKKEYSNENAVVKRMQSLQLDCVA
Experiment: RIPK1-ADP-Glo Enzymatic Assay
Type: biochemical
Conditions: ten-point titration, top compound concentration of 100000 nM; 25 nM GST-RIPK1, 300 μM ATP, 3 μM dephosphorylated-MBP; 30 min pre-incubation, 150 min reaction
Summary of the method: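 ADP-Glo luminescence quantifies ADP formed over 150 minutes by 25 nM Sf21-produced GST-RIPK1 (1-327) using 300 μM ATP and 3 μM dephosphorylated MBP, following 30-minute compound preincubation at 1% DMSO. Ten-point 1:3 series from 100000 nM gave EC50 via four-parameter sigmoidal regression.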

| Structure (SMILES) | EC50 |
| --- | --- |
| O=C1N2[C@@H](CC[C@H]2c2cc(F)cc(F)c2)OC12CC(Oc1cc(-n3cccn3)ncn1)C2 (stereo partly drawn) [Example 9.8, (5′S,7a′R)-5′-(3,5-difluorophenyl)-3-{[6-(1H-pyrazol-1-yl)pyrimidin-4-yl]oxy}tetrahydro-3′H-spiro[cyclobutane-1,2′-pyrrolo[2,1-b][1,3]oxazol]-3′-one] | 24 nM |
| O=C1N2[C@@H](CC[C@H]2c2cnccn2)OC12CC(OCc1ccc3cnoc3c1)C2 (stereo partly drawn) [Example 18.110, (5′S,7a′R)-3-(benzo[d]isoxazol-6-ylmethoxy)-5′-(pyrazin-2-yl)tetrahydro-3′H-spiro[cyclobutane-1,2′-pyrrolo [2,1-b]oxazol]-3′-one] | 44 nM |
| O=C1N2[C@@H](CC[C@H]2c2cnccn2)OC12CC(OCc1cccc(Cl)c1)C2 (stereo partly drawn) [Example 22.6, (5′S,7a′R)-3-[(3-chlorophenyl)methoxy]-5′-(pyrazin-2-yl)tetrahydro-3′H-spiro[cyclobutane-1,2′-pyrrolo[2,1-b][1,3]oxazol]-3′-one] | 15 nM |
| O=C1N2[C@@H](CC[C@H]2c2ccccc2)OC12CC(Oc1cccc(F)c1)C2 (stereo partly drawn) [Example 8.10, (5′S,7a′R)-3-(3-fluorophenoxy)-5′-phenyltetrahydro-3′H-spiro[cyclobutane-1,2′-pyrrolo[2,1-b][1,3]oxazol]-3′-one] | 11 nM |
| O=C1N2[C@@H](CC[C@H]2c2cnccn2)OC12CC(OCc1cccnc1C(F)(F)F)C2 (stereo partly drawn) [Example 20.6, (5′S,7a′R)-5′-(pyrazin-2-yl)-3-{[2-(trifluoromethyl)pyridin-3-yl]methoxy}tetrahydro-3′H-spiro[cyclobutane-1,2′-pyrrolo[2,1-b][1,3]oxazol]-3′-one] | 86 nM |
| N#Cc1ccc2c(O[C@H]3C[C@@]4(C3)O[C@@H]3CC[C@@H](c5ccc(F)cc5)N3C4=O)ncnn12 [Example 11.3, 4-(((1r,3R,5′S,7a′R)-5′-(4-fluorophenyl)-3′-oxotetrahydro-3′H-spiro[cyclobutane-1,2′-pyrrolo[2,1-b]oxazol]-3-yl)oxy)pyrrolo[2,1-f][1,2,4]triazine-7-carbonitrile] | 19 nM |
| O=C1N2[C@@H](CC[C@H]2c2cnccn2)O[C@]12C[C@@H](OCc1ccc3oncc3c1)C2 [Example 18.59, (5′S)-3-[(1,2-benzoxazol-5-yl)methoxy]-5′-(pyrazin-2-yl)tetrahydro-3′H-spiro[cyclobutane-1,2′-pyrrolo[2,1-b][1,3]oxazol]-3′-one] | 12 nM |
| O=C1N2C(CC[C@H]2c2cnccn2)OC12CC(OCc1cccc(N3CCCC3)n1)C2 (stereo partly drawn) [Example 18.96, (5′S)-5′-(pyrazin-2-yl)-3-{[6-(pyrrolidin-1-yl)pyridin-2-yl]methoxy}tetrahydro-3′H-spiro[cyclobutane-1,2′-pyrrolo[2,1-b][1,3]oxazol]-3′-one] | 225 nM |
| O=C1N2C(CC[C@H]2c2cnccn2)OC12CC(OCc1cc(-n3ccnc3)ccn1)C2 (stereo partly drawn) [Example 18.39] | 301 nM |
| COc1cc(COC2CC3(C2)OC2CC[C@@H](c4cnccn4)N2C3=O)cc2nccn12 (stereo partly drawn) [Example 18.83, (5′S)-3-[(5-methoxyimidazo[1,2-a]pyridin-7-yl)methoxy]-5′-(pyrazin-2-yl)tetrahydro-3′H-spiro[cyclobutane-1,2′-pyrrolo[2,1-b][1,3]oxazol]-3′-one] | 140 nM |
| O=C1N2[C@@H](CC[C@H]2c2cnccn2)OC12CC(OCc1cnn(C34CC(C3)C4)c1)C2 (stereo partly drawn) [Example 18.6, (5′S, 7a′R)-3-{[1-(bicyclo[1.1.1]pentan-1-yl)-1H-pyrazol-4-yl]methoxy}-5′-(pyrazin-2-yl)tetrahydro-3′H-spiro[cyclobutane-1,2′-pyrrolo[2,1-b][1,3]oxazol]-3′-one] | 365 nM |
| NC(=O)c1ccnc(O[C@H]2C[C@@]3(C2)O[C@@H]2CC[C@@H](c4cc(F)cc(F)c4)N2C3=O)c1 [Example 10.2, 2-(((1r,3R,5′S,7a′R)-5′-(3,5-difluorophenyl)-3′-oxotetrahydro-3′H-spiro[cyclobutane-1,2′-pyrrolo[2,1-b]oxazol]-3-yl)oxy)isonicotinamide] | 18 nM |
| N#Cc1cc(O[C@H]2C[C@]3(C2)O[C@@H]2CC[C@@H](c4ccccc4F)N2C3=O)ncn1 [Example 9.43, 6-{[(5′S,7a′R)-5′-(2-fluorophenyl)-3′-oxotetrahydro-3′H-spiro[cyclobutane-1,2′-pyrrolo[2,1-b][1,3]oxazol]-3-yl]oxy}pyrimidine-4-carbonitrile] | 353 nM |
| Cn1cc(C2CC[C@H]3OC4(CC(Oc5cc(C#N)ncn5)C4)C(=O)N23)cn1 (single isomer, unassigned) [Example 6.3, 6-((((1r or s),3R,5′(R or S),7a′R)-5′-(1-methyl-1H-pyrazol-4-yl)-3′-oxotetrahydro-3′H-spiro[cyclobutane-1,2′-pyrrolo[2,1-b]oxazol]-3-yl)oxy)pyrimidine-4-carbonitrile] | 129 nM |
| Cn1cc2cc(COC3CC4(C3)O[C@@H]3CC[C@@H](c5cnccn5)N3C4=O)ccc2n1 (stereo partly drawn) [Example 20.3, (5′S,7a′R)-3-[(2-methyl-2H-indazol-5-yl)methoxy]-5′-(pyrazin-2-yl)tetrahydro-3′H-spiro[cyclobutane-1,2′-pyrrolo[2,1-b][1,3]oxazol]-3′-one] | 126 nM |
| CCC(C)Oc1cccc(COC2CC3(C2)OC2CC[C@@H](c4cnccn4)N2C3=O)n1 (stereo partly drawn) [Example 18.13, (5′S)-3-({6-[(butan-2-yl)oxy]pyridin-2-yl}methoxy)-5′-(pyrazin-2-yl)tetrahydro-3′H-spiro[cyclobutane-1,2′-pyrrolo[2,1-b][1,3]oxazol]-3′-one] | 46 nM |
| O=C1N2[C@@H](CC[C@H]2c2cncc(F)c2)OC12CCC(OCc1ccccc1)CC2 (single isomer, unassigned) [Example 2.2, ((1s or r),4R,5′S,7a′R)-4-(benzyloxy)-5′-(5-fluoropyridin-3-yl)tetrahydro-3′H-spiro[cyclohexane-1,2′-pyrrolo[2,1-b]oxazol]-3′-one] | 595 nM |
| O=C1N2[C@@H](CC[C@H]2c2cc(F)cc(F)c2)OC12CC(Oc1ncccc1F)C2 (stereo partly drawn) [Example 9.39, (5′S,7a′R)-5′-(3,5-difluorophenyl)-3-[(3-fluoropyridin-2-yl)oxy]tetrahydro-3′H-spiro[cyclobutane-1,2′-pyrrolo[2,1-b][1,3]oxazol]-3′-one] | 47 nM |
| O=C1N2[C@@H](CC[C@H]2c2ccccc2)OC12CCC(Oc1cnccn1)CC2 (mixture of isomers) [Example 9.52, (5′S,7a′R)-5′-phenyl-4-[(pyrazin-2-yl)oxy]tetrahydro-3′H-spiro[cyclohexane-1,2′-pyrrolo[2,1-b][1,3]oxazol]-3′-one] | 19 nM |
| O=C1N2[C@@H](CC[C@H]2c2cc(F)cc(F)c2)O[C@]12C[C@H](Oc1ncnn3c(Br)ccc13)C2 [Example 11.1, (1r,3R,5′S,7a′R)-3-((7-bromopyrrolo[2,1-f][1,2,4]triazin-4-yl)oxy)-5′-(3,5-difluorophenyl)tetrahydro-3′H-spiro[cyclobutane-1,2′-pyrrolo[2,1-b]oxazol]-3′-one] | 12 nM |
| Cn1ccc([C@@H]2CC[C@H]3OC4(CC(Oc5cccc(-c6ccnn6C)c5)C4)C(=O)N32)n1 (stereo partly drawn) [Example 19.10, (5′S,7a′R)-5′-(1-methyl-1H-pyrazol-3-yl)-3-[3-(1-methyl-1H-pyrazol-5-yl)phenoxy]tetrahydro-3′H-spiro[cyclobutane-1,2′-pyrrolo[2,1-b][1,3]oxazol]-3′-one] | 30 nM |
